Reference: ChEMBL document CHEMBL3885881, “DrugMatrix”

Species on record: Rattus norvegicus
Assay: DrugMatrix - Regimen: Daily Repeat
Format: toxicity, organism-based, Sprague-Dawley
Parameters: regimen Daily Repeat, gender Male, age 6-8 weeks
Settings: in vivo, po, 1500 mg/kg, route oral GAVAGE, dose level High, vehicle 100 % WATER; for ABSOLUTE BASOPHIL / ABSOLUTE EOSINOPHIL / ABSOLUTE LYMPHOCYTE / ABSOLUTE MONOCYTE / ABSOLUTE SEGMENTED NEUTROPHIL / BASOPHIL / EOSINOPHIL / ERYTHROCYTE COUNT / HEMATOCRIT / HEMOGLOBIN / LEUKOCYTE COUNT / LYMPHOCYTE / MEAN CORPUSCULAR HEMOGLOBIN / MEAN CORPUSCULAR HEMOGLOBIN CONCENTRATION / MEAN CORPUSCULAR VOLUME / MONOCYTE / NEUTROPHIL / NUCLEATED RED BLOOD CELLS / PLATELET COUNT: tissue Blood; for ALANINE AMINOTRANSFERASE / ALBUMIN / ALKALINE PHOSPHATASE / ASPARTATE AMINOTRANSFERASE / BLOOD UREA NITROGEN / CARBON DIOXIDE / CHLORIDE / CHOLESTEROL / CREATINE PHOSPHOKINASE / CREATININE / GLUCOSE / LACTATE DEHYDROGENASE / LIPASE / PHOSPHORUS / POTASSIUM / SODIUM / TOTAL BILIRUBIN / TOTAL PROTEIN / URIC ACID: tissue Plasma

CNCCc1ccccn1 [BETAHISTINE]
ABSOLUTE BASOPHIL (72 h, time 3 day): 0 CELLS/uL
ABSOLUTE EOSINOPHIL (72 h, time 3 day): 56.67 CELLS/uL
ABSOLUTE LYMPHOCYTE (72 h, time 3 day): 8977.33 CELLS/uL
ABSOLUTE MONOCYTE (72 h, time 3 day): 168 CELLS/uL
ABSOLUTE SEGMENTED NEUTROPHIL (72 h, time 3 day): 798 CELLS/uL
BASOPHIL (72 h, time 3 day): 0%
EOSINOPHIL (72 h, time 3 day): 0.67%
ERYTHROCYTE COUNT (72 h, time 3 day): 5.37 x10E6/uL
HEMATOCRIT (72 h, time 3 day): 33.67%
HEMOGLOBIN (72 h, time 3 day): 12.53 G/DL
LEUKOCYTE COUNT (72 h, time 3 day): 10 x10E3/uL
LYMPHOCYTE (72 h, time 3 day): 89.67%
MEAN CORPUSCULAR HEMOGLOBIN (72 h, time 3 day): 23.37 pg
MEAN CORPUSCULAR HEMOGLOBIN CONCENTRATION (72 h, time 3 day): 37.27 G/DL
MEAN CORPUSCULAR VOLUME (72 h, time 3 day): 62.73 fL
MONOCYTE (72 h, time 3 day): 1.67%
NEUTROPHIL (72 h, time 3 day): 8%
NUCLEATED RED BLOOD CELLS (72 h, time 3 day): 0 /100WBC
PLATELET COUNT (72 h, time 3 day): 1427.33 x10E3/uL
ALANINE AMINOTRANSFERASE (72 h, time 3 day): 50 u/L
ALBUMIN (72 h, time 3 day): 4.53 G/DL
ALKALINE PHOSPHATASE (72 h, time 3 day): 288.67 u/L
ASPARTATE AMINOTRANSFERASE (72 h, time 3 day): 71.67 u/L
BLOOD UREA NITROGEN (72 h, time 3 day): 14.33 mg/dL
CARBON DIOXIDE (72 h, time 3 day): 28.33 mmol/L
CHLORIDE (72 h, time 3 day): 105.67 MEQ/L
CHOLESTEROL (72 h, time 3 day): 76.33 mg/dL
CREATINE PHOSPHOKINASE (72 h, time 3 day): 148.67 u/L
CREATININE (72 h, time 3 day): 0.19 mg/dL
GLUCOSE (72 h, time 3 day): 141 mg/dL
LACTATE DEHYDROGENASE (72 h, time 3 day): 118 u/L
LIPASE (72 h, time 3 day): 15.67 u/L
PHOSPHORUS (72 h, time 3 day): 12.33 mg/dL
POTASSIUM (72 h, time 3 day): 6.21 MEQ/L
SODIUM (72 h, time 3 day): 150.8 MEQ/L
TOTAL BILIRUBIN (72 h, time 3 day): 0.2 mg/dL
TOTAL PROTEIN (72 h, time 3 day): 6.07 G/DL
URIC ACID (72 h, time 3 day): 0.87 mg/dL
ABSOLUTE BASOPHIL (120 h, time 5 day): 0 CELLS/uL
ABSOLUTE EOSINOPHIL (120 h, time 5 day): 0 CELLS/uL
ABSOLUTE LYMPHOCYTE (120 h, time 5 day): 10659 CELLS/uL
ABSOLUTE MONOCYTE (120 h, time 5 day): 37.33 CELLS/uL
ABSOLUTE SEGMENTED NEUTROPHIL (120 h, time 5 day): 870.33 CELLS/uL
BASOPHIL (120 h, time 5 day): 0%
EOSINOPHIL (120 h, time 5 day): 0%
ERYTHROCYTE COUNT (120 h, time 5 day): 5.91 x10E6/uL
HEMATOCRIT (120 h, time 5 day): 36.13%
HEMOGLOBIN (120 h, time 5 day): 13.33 G/DL
LEUKOCYTE COUNT (120 h, time 5 day): 11.57 x10E3/uL
LYMPHOCYTE (120 h, time 5 day): 92%
MEAN CORPUSCULAR HEMOGLOBIN (120 h, time 5 day): 22.63 pg
MEAN CORPUSCULAR HEMOGLOBIN CONCENTRATION (120 h, time 5 day): 36.93 G/DL
MEAN CORPUSCULAR VOLUME (120 h, time 5 day): 61.27 fL
MONOCYTE (120 h, time 5 day): 0.33%
NEUTROPHIL (120 h, time 5 day): 7.67%
NUCLEATED RED BLOOD CELLS (120 h, time 5 day): 0 /100WBC
PLATELET COUNT (120 h, time 5 day): 1404.67 x10E3/uL
ALANINE AMINOTRANSFERASE (120 h, time 5 day): 60.67 u/L
ALBUMIN (120 h, time 5 day): 4.2 G/DL
ALKALINE PHOSPHATASE (120 h, time 5 day): 406.33 u/L
ASPARTATE AMINOTRANSFERASE (120 h, time 5 day): 75.67 u/L
BLOOD UREA NITROGEN (120 h, time 5 day): 14 mg/dL
CARBON DIOXIDE (120 h, time 5 day): 25.33 mmol/L
CHLORIDE (120 h, time 5 day): 105.33 MEQ/L
CHOLESTEROL (120 h, time 5 day): 59 mg/dL
CREATINE PHOSPHOKINASE (120 h, time 5 day): 153 u/L
CREATININE (120 h, time 5 day): 0.19 mg/dL
GLUCOSE (120 h, time 5 day): 171 mg/dL
LACTATE DEHYDROGENASE (120 h, time 5 day): 64 u/L
LIPASE (120 h, time 5 day): 8 u/L
PHOSPHORUS (120 h, time 5 day): 13.97 mg/dL
POTASSIUM (120 h, time 5 day): 5.7 MEQ/L
SODIUM (120 h, time 5 day): 146.6 MEQ/L
TOTAL BILIRUBIN (120 h, time 5 day): 0.27 mg/dL
TOTAL PROTEIN (120 h, time 5 day): 5.9 G/DL
URIC ACID (120 h, time 5 day): 2.07 mg/dL
